The subject of data set [1] is SKOV3ip1. Put plainly: TUNEL staining of tumor tissues from the SKOV3ip1 model. In kind it is in vivo, female athymic nude mice. The following applies: SKOV3ip1 model tumors, compared to control group. On the procedure: TUNEL Staining. Assessment of apoptosis, frozen sections stained by terminal deoxynucleotidyl transferase-mediated deoxyuridine triphosphate nick-end labeling (TUNEL; green; Promega, Madison, Wis.), was performed as described previously (Shahzad et al., 2009). The samples were counterstained with Hoechst 1:10,000 (Thaker et al., 2005). An apoptotic body was represented by green fluorescence. To quantify apoptotic cells, the number of TUNEL positive cells was calculated in 10 random fields at the original magnification 200× from five separate slides (per group) and averaged.
STAT3 is known to increase cell survival and inhibit apoptosis (Shen et al., 2001; Catlett-Falcone et al., 1999; Zushi et al., 1998; Masude et al., 2002). To assess whether STAT3 knockdown would enhance the efficacy of docetaxel treatment by enhancing its ability to produce apoptosis., fluorescents labeled TUNEL staining was performed on fresh frozen tumor tissues from the SKOV3ip1 ovarian cancer treatment model.

Data set [2] has as its system SKOV3ip1 ovarian cancer cells. Put plainly: Annexin-V PE/7AAD flow cytometry apoptosis assay. In kind it is cell-based. Conditions: docetaxel 4 nM, 48 hours after docetaxel treatment. On the technique in general: In flow cytometry, cells or beads pass a laser one at a time.
Description: All in vitro experiments were conducted using 4.0 nM concentration of docetaxel in SKOV3ip1 ovarian cancer cells. These cells were treated with docetaxel after STAT3 gene was silenced using siRNA (as described above) for 48 hours.
Additionally, to determine the effects of in vitro STAT3 targeting on apoptosis, STAT3 gene was silenced in SKOV3ip1 ovarian cancer cells using an siRNA targeted against STAT3 and followed by treatment with docetaxel (4 nM). 48 hours after docetaxel treatment, the extent of cell death secondary to apoptosis was analyzed after Annexin-V PE/7AAD staining with flow cytometry.
Data set [3] deals with SKOV3ip1. Kind of data set: Ki-67 staining (cell proliferation index) of tumors from SKOV3ip1 model. In kind it is in vivo, female athymic nude mice. Conditions: compared with control group. The text has this:
Effect of STAT3 targeting on tumor microenvironment. […] The combination of STAT3 siRNA/rHDL and docetaxel reduced tumor cell proliferation by 48% (P<0.01) compared with control group (FIG. 7).

Another data set concerns HeyA8MDR. Kind of data set: Multi-drug resistant model of ovarian carcinoma (HeyA8MDR). Conditions: compared to control siRNA/rHDL. The class given is in vivo, female athymic nude mice. On the procedure:
(§1) Orthotopic mouse model. The 10- to 12-week-old female athymic nude mice were obtained from the US National Cancer Institute. All experiments were approved by the Institutional Animal Care and Use Committee of the M.D. Anderson Cancer Center. […] Tumor cells for appropriate ovarian cancer mouse models (HeyA8, 2.5×105; SKOV3ip1 and […], 1.0×106) were injected intraperitoneally into mice on day 0. Mice randomized into appropriate groups on day 7 when tumors had been established and were palpable. After 3-5 weeks of treatment (depending on the model), mice were necropsied and tumors were harvested. Small interfering RNA (siRNA). Specific siRNAs targeted against Stat3-7 (target sequence [NT] ID NO:1), FAK (target Sequence [NT] ID NO:2) and control siRNA targeted against (target sequence:[NT] ID NO:3) were purchased from Sigma-Aldrich Corporation, (Woodland, Tex.). These were incorporated into r-HDL nanoparticles, as previously described (Mooberry et al., 2009). 5 ug of r-HDL incorporated siRNA was injected intraperitoneally twice weekly. For in vitro studies, mRNA-specific or nonspecific (control) siRNA was incorporated into Qiagen RNAiFect transfection agent (1 ug of siRNA to 3 uL of RNAiFect). […] Cells were first transfected with STAT3 siRNA. Twenty-four hours after transfection, media was changed to standard siRNA-free media and cells were treated with docetaxel (see below for details). […]

Data set [4] concerns SKOV3ip1. Kind of data set: Orthotopic ovarian cancer mouse model (SKOV3ip1). In kind it is in vivo, female athymic nude mice. The following applies: compared to control group. The method, then:
as §1

The next data set concerns HeyA8. Kind of data set: Orthotopic mouse model of ovarian carcinoma (HeyA8). In kind it is in vivo, female athymic nude mice. The method, then: Orthotopic mouse model. The 10- to 12-week-old female athymic nude mice were obtained from the US National Cancer Institute. All experiments were approved by the Institutional Animal Care and Use Committee of the M.D. Anderson Cancer Center. […] Tumor cells for appropriate ovarian cancer mouse models (HeyA8, 2.5×105; SKOV3ip1 and […], 1.0×106) were injected intraperitoneally into mice on day 0. Mice randomized into appropriate groups on day 7 when tumors had been established and were palpable. After 3-5 weeks of treatment (depending on the model), mice were necropsied and tumors were harvested. Small interfering RNA (siRNA). Specific siRNAs targeted against Stat3-7 (target sequence [NT] ID NO:1), FAK (target Sequence [NT] ID NO:2) and control siRNA targeted against (target sequence:[NT] ID NO:3) were purchased from Sigma-Aldrich Corporation, (Woodland, Tex.). These were incorporated into r-HDL nanoparticles, as previously described (Mooberry et al., 2009). 5 ug of r-HDL incorporated siRNA was injected intraperitoneally twice weekly. For in vitro studies, mRNA-specific or nonspecific (control) siRNA was incorporated into Qiagen RNAiFect transfection agent (1 ug of siRNA to 3 uL of RNAiFect). […] Cells were first transfected with STAT3 siRNA. Twenty-four hours after transfection, media was changed to standard siRNA-free media and cells were treated with docetaxel (see below for details). Reagents. Docetaxel was purchased from Sanofi-Aventis (Bridgewater, N.J.). […] These cells were treated with docetaxel after STAT3 gene was silenced using siRNA (as described above) for 48 hours. In In vivo experiments, appropriate groups received treatment with docetaxel starting on day 7, once a week, intraperitoneally at: 50 ug/mouse (HeyA8 and HeyA8-MDR) and 30 ug/mouse (SKOV3). […] Statistics. Continuous variables were compared with the use of the Student t test (between 2 groups) or analysis of variance (for all groups) if normally distributed, and with the use of the Mann-Whitney rank sum test or Kruskal Wallis test (for all groups) if nonparametric. […]

In data set [5] the test system is tumor associated angiogenesis. Kind of data set: CD31 staining, microvessel density (MVD) of tumor samples. Conditions: compared with control siRNA/rHDL treatment.
Description: Paraffin sections for CD31 (1:800 dilution, Pharmingen), were stained at 4° C. […] To quantify MVD, five random 0.159 mm2 fields at 100× magnification for each tumor were examined, and microvessels within those fields were counted (Thaker et al., 2005).
In order to ascertain the effects of STAT3 silencing on tumor associated angiogenesis, CD 31 staining on fresh frozen tumor samples from all four treatment groups (FIG. 7) was determined along with microvessel density (MVD).
For data set [6], the system named is SKOV3ip1 ovarian cancer cells. Kind of data set: MTT assay, docetaxel after STAT3 siRNA transfection. In kind it is cell-based. Conditions: SKOV3ip1 cells transfected with STAT3 siRNA, docetaxel in escalating doses, compared to docetaxel treatment. On the procedure:
Small interfering RNA (siRNA). Specific siRNAs targeted against Stat3—7 (target sequence 5′-[…]-3′; SEQ ID NO:1), FAK (target Sequence 5′-[…]-3′; SEQ ID NO:2) and control siRNA targeted against (target sequence:5′-[…]-3′; SEQ ID NO:3) were purchased from Sigma-Aldrich Corporation, (Woodland, Tex.). These were incorporated into r-HDL nanoparticles, as previously described (Mooberry et al., 2009). 5 ug of r-HDL incorporated siRNA was injected intraperitoneally twice weekly. For in vitro studies, mRNA-specific or nonspecific (control) siRNA was incorporated into Qiagen RNAiFect transfection agent (1 ug of siRNA to 3 uL of RNAiFect). Only 70% to 80% confluent SKOV3ip1 cells were utilized. Cells were first transfected with STAT3 siRNA. Twenty-four hours after transfection, media was changed to standard siRNA-free media and cells were treated with docetaxel (see below for details).
MTT assay. SKOV3 cell (1.5×105) cells were plated in each well, using 6 well plates. Cells were then transfected with control or STAT3 siRNA overnight. […] Forty-eight hours after docetaxel treatment, the number of viable cells was determined by adding 50 μL of 0.15% 3-(4,5-dimethylthiazol-2-yl)-2,5-diphenyl tetrazolium bromide (MTT; Sigma) to each well. […] Viable cells were quantified by measuring the absorbance at 570 nm using a uQuant plate reader (Bio-Tek, Winooski, Vt.). […]
In general terms: Tetrazolium assays rely on reduction of a dye to a coloured formazan, in cell work by metabolically active cells.

The next data set deals with Ovarian Tumor Cells. Kind of data set: Gene expression profile after STAT3 knockdown (Illumina microarray / quantitative RT-PCR). In kind it is cell-based. The method, then: Effect of STAT3 Silencing on Gene Expression profile of Ovarian Tumor Cells. STAT3 knockdown using siRNA targeted against STAT3, microarray analysis using Illumina platform was performed There were 460 genes that were identified to have differential expression levels between the control and STAT3 targeted group. Data was then analyzed using ingenuity-pathway assistance and 32 genes that were involved in cell survival and apoptosis were chosen (Table 1).

The next data set deals with HCT116. Conditions: HCT116 model, compared to controls.
Setting [7] is: STAT3 targeting study, compared to the control group.

With `CC(=O)O[C@@]12CO[C@@H]1C[C@H](O)[C@@]1(C)C(=O)[C@H](O)C3=C(C)[C@@H](OC(=O)[C@H](O)[C@@H](NC(=O)OC(C)(C)C)c4ccccc4)C[C@@](O)([C@@H](OC(=O)c4ccccc4)[C@H]21)C3(C)C` [docetaxel], in the data set with SKOV3ip1 [1], the “increase in tumor cell apoptosis (TUNEL)” value was 12 fold. In addition, the “increase in apoptosis compared to control” value in data set [2] is recorded as 5.2 fold. Besides, the “reduction in tumor cell proliferation (Ki-67)” value in the data set with SKOV3ip1 [3] is 30%. In addition, the “reduction in tumor growth” value worked out at 17% in the data set on HeyA8MDR, 78% in the data set on SKOV3ip1 [4], 74% in the data set with HeyA8 (FAK targeting study) and 62% in the data set on HeyA8 (setting [7]). Further, the “reduction in tumor metastasis” value with HeyA8 (setting [7]) worked out at 77%. Further, the “reduction in MVD (tumor associated vessel counts, CD31)” value in data set [5] is reported as 66%.
“STAT3 siRNA: siRNA against Stat3 (SEQ ID NO:1), transfected in vitro with Qiagen RNAiFect transfection agent (GCCUCUCUGCAGAAUUCAA; listed as RNA, chemistry not given here)”: the “effect of STAT3 silencing on IC 50 values of docetaxel” value in data set [6] is “lowered the IC 50 values of docetaxel significantly”. Also, the “increase in apoptosis compared to control” value in [2] is given as 3 fold. Besides, the “Fold Change” value turned out to be 1.43 fold in the data set on Ovarian Tumor Cells (gene ALOX5, Stat3 silencing vs control); 0.44 fold in the data set with Ovarian Tumor Cells (gene ATF6, Stat3 silencing vs control); 1.49 fold with Ovarian Tumor Cells (gene BAX, Stat3 silencing vs control); 0.72 fold with Ovarian Tumor Cells (gene BCL6, Stat3 silencing vs control); 1.46 fold with Ovarian Tumor Cells (gene BEX2, Stat3 silencing vs control); 0.75 fold in the data set with Ovarian Tumor Cells (gene CAV1, Stat3 silencing vs control). Further, the “Fold Change” value with Ovarian Tumor Cells (gene CD24, Stat3 silencing vs control) is reported as 0.73 fold; in the data set with Ovarian Tumor Cells (gene CDCP1, Stat3 silencing vs control) it was 0.73 fold; in the data set on Ovarian Tumor Cells (gene CTGF, Stat3 silencing vs control) it was 0.62 fold; in the data set on Ovarian Tumor Cells (gene CYR61, Stat3 silencing vs control), 0.68 fold; with Ovarian Tumor Cells (gene DKK1, Stat3 silencing vs control), 0.72 fold; in the data set on Ovarian Tumor Cells (gene DUSP1, Stat3 silencing vs control), 0.74 fold. Moreover, the “Fold Change” value in the data set with Ovarian Tumor Cells (gene ETS2, Stat3 silencing vs control) is 0.56 fold; in the data set with Ovarian Tumor Cells (gene FGF2, Stat3 silencing vs control), 0.68 fold; in the data set with Ovarian Tumor Cells (gene FOS, Stat3 silencing vs control) it was 0.72 fold; in the data set with Ovarian Tumor Cells (gene HM OX1, Stat3 silencing vs control), 1.79 fold; with Ovarian Tumor Cells (gene IGFBP3, Stat3 silencing vs control), 0.45 fold; in the data set with Ovarian Tumor Cells (gene IL-1B, Stat3 silencing vs control), 0.55 fold. Also, the “Fold Change” value with Ovarian Tumor Cells (gene IL-6, Stat3 silencing vs control) is listed as 0.61 fold; in the data set on Ovarian Tumor Cells (gene KITLG, Stat3 silencing vs control), 0.66 fold; in the data set on Ovarian Tumor Cells (gene NFKBIZ, Stat3 silencing vs control) it was 0.65 fold; in the data set with Ovarian Tumor Cells (gene NQO1, Stat3 silencing vs control), 0.55 fold; in the data set on Ovarian Tumor Cells (gene NRP1, Stat3 silencing vs control), 0.67 fold; in the data set on Ovarian Tumor Cells (gene PLAUR, Stat3 silencing vs control), 0.72 fold. Further, the “Fold Change” value amounted to 0.69 fold with Ovarian Tumor Cells (gene PMAIP1, Stat3 silencing vs control); 0.71 fold with Ovarian Tumor Cells (gene PMEPA1, Stat3 silencing vs control); 0.68 fold with Ovarian Tumor Cells (gene PRKRA, Stat3 silencing vs control); 0.68 fold with Ovarian Tumor Cells (gene RASA1, Stat3 silencing vs control); 1.37 fold with Ovarian Tumor Cells (gene RTN1, Stat3 silencing vs control); 0.55 fold with Ovarian Tumor Cells (gene SFRP1, Stat3 silencing vs control). Also, the “Fold Change” value worked out at 0.68 fold in the data set on Ovarian Tumor Cells (gene SGK1, Stat3 silencing vs control); 0.7 fold in the data set on Ovarian Tumor Cells (gene SPARC, Stat3 silencing vs control); 0.77 fold in the data set with Ovarian Tumor Cells (gene SPP1, Stat3 silencing vs control); 0.23 fold with Ovarian Tumor Cells (gene STAT3, Stat3 silencing vs control); 0.71 fold in the data set on Ovarian Tumor Cells (gene TCF3, Stat3 silencing vs control); 0.61 fold with Ovarian Tumor Cells (gene TNFRSF11B, Stat3 silencing vs control). The “Fold Change” value in the data set on Ovarian Tumor Cells (gene TNFSF10, Stat3 silencing vs control) is given as 0.7 fold; in the data set with Ovarian Tumor Cells (gene XBP1, Stat3 silencing vs control) it was 0.74 fold.
Take `O=C1[O][Pt]2([NH][C@@H]3CCCC[C@H]3[NH]2)[O]C1=O` [oxaliplatin]: in the data set with HCT116, the “reduction in tumor growth” value is 55%.

The values above are taken from patent US8734853B2, “HDL particles for delivery of nucleic acids” (University of North Texas Health Science Center at Fort …, priority 2008, dated 2014).
